Experiments:
Type in all cases: in vivo
[1] = tested on: mice; assay: Sleep induced by over-threshold dose of pentobarbital sodium in mice; details: pentobarbital sodium 40 mg/kg 60 min after last dose, twice daily for three days, Diazepam 20 mg/kg BW, Tomato Extract 3 mg/kg BW (melatonin content), Synthesized Melatonin 5 mg/kg BW; for Number of Mice that Fell Asleep: 10 mice, within 30 minutes
[2] = tested on: mice; assay: Threshold dose experiment of pentobarbital sodium (sleep rate within 30 minutes post-injection); details: for Sleep Rate (%) / Number of Mice that Fell Asleep: within 30 minutes; for Number of Mice that Fell Asleep: 10 mice
Method: Threshold Dose Experiment of Pentobarbital Sodium: A total of 40 mice were randomly divided into four groups, with 10 mice in each group. Each group received an intraperitoneal injection of pentobarbital sodium at the following doses: 25 mg/kg bodyweight (BW), 30 mg/kg BW, 35 mg/kg BW, and 40 mg/kg BW. The sleep rates of the mice were recorded within 30 minutes post-injection.
Based on the experimental results, it appears that the lower threshold dose of pentobarbital sodium is 25 mg/kg BW (“sub-threshold dose”). Based on the experimental results, it appears that the upper threshold dose of pentobarbital sodium is 40 mg/kg BW (“over-threshold dose”). The lower threshold was used for subsequent studies.

[3] = tested on: mice; assay: Sleep induced by sub-threshold dose of pentobarbital sodium in mice; details: pentobarbital sodium 25 mg/kg 60 min after last dose, twice daily for three days, Diazepam 20 mg/kg BW, Tomato Extract 3 mg/kg BW (melatonin content), Synthesized Melatonin 5 mg/kg BW; for Number of Mice that Fell Asleep: 10 mice, within 30 minutes
[4] = mice, intraperitoneal, sleep within 30 minutes

Compound	Sleep Latency [1] [min]	Sleep Rate (%) [1] [%]	Total Sleep Duration [1] [min]	Number of Mice that Fell Asleep [1]	Sleep Rate (%) ([2]; 25 mg/kg BW intraperitoneal)	Number of Mice that Fell Asleep ([2]; 25 mg/kg BW intraperitoneal)	Sleep Rate (%) ([2]; 30 mg/kg BW intraperitoneal)	Number of Mice that Fell Asleep ([2]; 30 mg/kg BW intraperitoneal)	Sleep Rate (%) ([2]; 35 mg/kg BW intraperitoneal)	Number of Mice that Fell Asleep ([2]; 35 mg/kg BW intraperitoneal)	Sleep Rate (%) ([2]; 40 mg/kg BW intraperitoneal)	Number of Mice that Fell Asleep ([2]; 40 mg/kg BW intraperitoneal)	lower threshold dose (sub-threshold dose) [2, 4] [mg/kg BW]	upper threshold dose (over-threshold dose) [2, 4] [mg/kg BW]	Sleep Latency [3] [min]	Sleep Rate (%) [3] [%]	Total Sleep Duration [3] [min]	Number of Mice that Fell Asleep [3]
CCCC(C)C1(CC)C(=O)NC(=O)NC1=O (stereo not shown) [Pentobarbital Sodium, pentobarbital sodium]	12.69	100	13.50	10	10	1	50	5	80	8	100	10	25	40	12.37	10	11.50	1
COc1ccc2[nH]cc(CCNC(C)=O)c2c1 [Chemically Synthesized Melatonin, N-acetyl-5-methoxytruptamine]	4.53	100	62.56	10	–	–	–	–	–	–	–	–	–	–	6.33	100	21.56	10
CN1C(=O)CN=C(c2ccccc2)c2cc(Cl)ccc21 [Diazepam]	5.13	100	58.23	10	–	–	–	–	–	–	–	–	–	–	7.89	100	19.23	10

Reference: patent US20250255923A1, “METHODS FOR EXTRACTING MELATONIN AND COMPOSITIONS THEREOF” (priority 2023, published 2025)
